The target of one data set is human PDE10A (Homo sapiens (Human), UniProt Q9Y233). Kind of data set: human PDE10A full length Scintillation Proximity Assay (SPA). The note with it: 50 nM cGMP + 50 nM [3H]-cGMP, 20 minutes at room temperature, read-out: PDE10A inhibition IC50. The format is biochemical. On the procedure: The following test was carried out in order to determine the activity of the compounds of the present invention. […] The human PDE10A full length assay was performed in 96-well micro titer plates. […] A range of concentrations of the potential inhibitor was used to generate data for calculating the concentration of inhibitor resulting in 50% of the effect (e.g. […] Non-specific activity was tested without the enzyme. The reaction was initiated by the addition of the substrate solution (cGMP and [^3H]-cGMP) and allowed to progress for 20 minutes at room temperature. The reaction was terminated by adding 25 μl of YSi-SPA scintillation beads (GE Healthcare, cat. # RPNQ0150) in 18 mM zinc sulphate solution (stop reagent). […] Afterwards, radioactive counts were measured on a Perkin Elmer Top-Count Scintillation plate reader.
Sequence of human PDE10A (Q9Y233 other isoform, or with tags, fused parts or gaps): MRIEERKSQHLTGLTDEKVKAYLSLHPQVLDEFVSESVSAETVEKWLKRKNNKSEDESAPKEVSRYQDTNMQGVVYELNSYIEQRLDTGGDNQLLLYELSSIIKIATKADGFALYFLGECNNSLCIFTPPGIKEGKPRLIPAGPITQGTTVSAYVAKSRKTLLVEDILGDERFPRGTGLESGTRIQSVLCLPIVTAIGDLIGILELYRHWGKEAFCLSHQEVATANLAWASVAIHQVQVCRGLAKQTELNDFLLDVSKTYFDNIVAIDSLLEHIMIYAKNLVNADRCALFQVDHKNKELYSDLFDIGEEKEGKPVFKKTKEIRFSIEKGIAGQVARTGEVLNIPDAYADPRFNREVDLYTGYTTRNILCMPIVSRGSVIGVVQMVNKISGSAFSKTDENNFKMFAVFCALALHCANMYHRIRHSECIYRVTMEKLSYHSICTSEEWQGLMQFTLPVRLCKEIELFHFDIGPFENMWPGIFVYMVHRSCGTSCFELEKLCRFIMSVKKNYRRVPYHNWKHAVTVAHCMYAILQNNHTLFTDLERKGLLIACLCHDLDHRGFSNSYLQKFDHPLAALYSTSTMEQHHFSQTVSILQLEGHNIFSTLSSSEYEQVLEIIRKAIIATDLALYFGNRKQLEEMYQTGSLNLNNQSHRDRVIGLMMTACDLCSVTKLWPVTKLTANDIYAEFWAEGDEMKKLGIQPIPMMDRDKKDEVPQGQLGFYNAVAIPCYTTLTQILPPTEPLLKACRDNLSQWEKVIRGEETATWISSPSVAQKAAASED
(SPA uses beads or plates that emit light when radiolabelled molecules are held near them.)
In general, IC50 refers to the concentration that gives 50% inhibition. With `Cn1ncc(C(=O)N2CCC2)c1C(=O)Nc1ccc2nc(N3CCCC3)nn2c1` [Example 33], the IC50 came to 0.8 nM.

As for `CN(C(=O)c1cnn(C)c1C(=O)Nc1ccc2nc(N3CCCC3)nn2c1)C1CC1` [Example 35], the IC50 worked out at 1 nM.

Consider `CN(C(=O)c1cnn(C)c1C(=O)Nc1ccc2nc(N3CCOCC3)nn2c1)C1CC1` [Example 18, 2-Methyl-2H-pyrazole-3,4-dicarboxylic acid 4-(cyclopropyl-methyl-amide) 3-[(2-morpholin-4-yl-[1,2,4]triazolo[1,5-a]pyridin-6-yl)-amide]], for which the IC50 was 7.2 nM.

Consider `CN(C)c1nc2ccc(NC(=O)c3c(C(=O)N(C)C4CC4)cnn3C)cn2n1` [Example 24, 2-Methyl-2H-pyrazole-3,4-dicarboxylic acid 4-(cyclopropyl-methyl-amide) 3-[(2-dimethylamino-[1,2,4]triazolo[1,5-a]pyridin-6-yl)-amide]], for which the half-maximal inhibitory concentration (IC50) stood at 5.3 nM.

Turning to `CCN(C)C(=O)c1cnn(C)c1C(=O)Nc1ccc2nc(-c3ccccc3)nn2c1` [Example 7, 2-Methyl-2H-pyrazole-3,4-dicarboxylic acid 4-(ethyl-methyl-amide) 3-[(2-phenyl-[1,2,4]triazolo[1,5-a]pyridin-6-yl)-amide]], the 50% inhibitory concentration (IC50) amounted to 2.2 nM.

Consider `COC1CCN(c2nc3ccc(NC(=O)c4c(C(=O)N5CCCC5)cnn4C)cn3n2)C1` (stereo not shown) [Example 42, 2-Methyl-4-(pyrrolidine-1-carbonyl)-2H-pyrazole-3-carboxylic acid [2-(3-methoxy-pyrrolidin-1-yl)-[1,2,4]triazolo[1,5-a]pyridin-6-yl]-amide], for which the IC50 stood at 7.5 nM.

With `Cn1ncc(C(=O)N2CCOCC2)c1C(=O)Nc1ccc2nc(N3CCCC3)nn2c1` [Example 32, 2-Methyl-4-(morpholine-4-carbonyl)-2H-pyrazole-3-carboxylic acid (2-pyrrolidin-1-yl-[1,2,4]triazolo[1,5-a]pyridin-6-yl)-amide], the IC50 stood at 2.5 nM.

`Cn1ncc(C(=O)N2CC(F)C2)c1C(=O)Nc1ccc2nc(-c3ccccc3)nn2c1` [Example 6, 4-(3-Fluoro-azetidine-1-carbonyl)-2-methyl-2H-pyrazole-3-carboxylic acid (2-phenyl-[1,2,4]triazolo[1,5-a]pyridin-6-yl)-amide]: the IC50 was determined as 1.5 nM.

For `Cn1ncc(C(=O)N2CC(F)C2)c1C(=O)Nc1ccc2nc(N3CCOCC3)nn2c1` [Example 17, 4-(3-Fluoro-azetidine-1-carbonyl)-2-methyl-2H-pyrazole-3-carboxylic acid (2-morpholin-4-yl-[1,2,4]triazolo[1,5-a]pyridin-6-yl)-amide], the IC50 turned out to be 26.5 nM.

Consider `CCN(C)C(=O)c1cnn(C)c1C(=O)Nc1ccc2nc(N3CCOCC3)nn2c1` [Example 16, 2-Methyl-2H-pyrazole-3,4-dicarboxylic acid 4-(ethyl-methyl-amide) 3-[(2-morpholin-4-yl-[1,2,4]triazolo[1,5-a]pyridin-6-yl)-amide]], for which the concentration for half-maximal inhibition (IC50) was determined as 30.8 nM.

Consider `COC1CCN(c2nc3ccc(NC(=O)c4c(C(=O)N5CCC5)cnn4C)cn3n2)C1` (stereo not shown) [Example 43, 4-(Azetidine-1-carbonyl)-2-methyl-2H-pyrazole-3-carboxylic acid [2-(3-methoxy-pyrrolidin-1-yl)-[1,2,4]triazolo[1,5-a]pyridin-6-yl]-amide], for which the half-inhibitory concentration (IC50) is 4.9 nM.

For the molecule `COC1CCN(c2nc3ccc(NC(=O)c4c(C(=O)N(C)C5CC5)cnn4C)cn3n2)C1` (stereo not shown) [Example 41, 2-Methyl-2H-pyrazole-3,4-dicarboxylic acid 4-(cyclopropyl-methyl-amide) 3-{[2-(3-methoxy-pyrrolidin-1-yl)-[1,2,4]triazolo[1,5-a]pyridin-6-yl]-amide}], the IC50 is 3.5 nM.

As to `COC1CCN(c2nc3ccc(NC(=O)c4c(C(=O)N5CCOCC5)cnn4C)cn3n2)C1` (stereo not shown) [Example 39, 2-Methyl-4-(morpholine-4-carbonyl)-2H-pyrazole-3-carboxylic acid [2-(3-methoxy-pyrrolidin-1-yl)-[1,2,4]triazolo[1,5-a]pyridin-6-yl]-amide], the IC50 is 23.1 nM.

Regarding `CCN(CC)C(=O)c1cnn(C)c1C(=O)Nc1ccc2nc(N3CCC(OC)C3)nn2c1` (stereo not shown) [Example 38], the half-inhibitory concentration (IC50) turned out to be 29.4 nM.

As for `Cn1ncc(C(=O)N2CCCC2)c1C(=O)Nc1ccc2nc(-c3ccccc3)nn2c1` [Example 2, 2-Methyl-4-(pyrrolidine-1-carbonyl)-2H-pyrazole-3-carboxylic acid (2-phenyl-[1,2,4]triazolo[1,5-a]pyridin-6-yl)-amide], the IC50 was determined as 1.2 nM.

For `Cn1ncc(C(=O)N2CCC2)c1C(=O)Nc1ccc2nc(-c3cscn3)nn2c1` [Example 4, 4-(Azetidine-1-carbonyl)-1-methyl-N-(2-(thiazol-4-yl)-[1,2,4]triazolo[1,5-a]pyridin-6-yl)-1H-pyrazole-5-carboxamide], the IC50 was 7.9 nM.

With `CCN(CC)c1nc2ccc(NC(=O)c3c(C(=O)N4CCC4)cnn3C)cn2n1` [Example 28, 2-Methyl-4-(azetitine-4-carbonyl)-2H-pyrazole-3-carboxylic acid (2-diethylamino-[1,2,4]triazolo[1,5-a]pyridin-6-yl)-amide], the IC50 was 3.3 nM.

As for `CCN(CC)c1nc2ccc(NC(=O)c3c(C(=O)N4CCOCC4)cnn3C)cn2n1` [Example 26, 2-Methyl-4-(morpholine-4-carbonyl)-2H-pyrazole-3-carboxylic acid (2-diethylamino-[1,2,4]triazolo[1,5-a]pyridin-6-yl)-amide], the 50% inhibitory concentration (IC50) was 21.8 nM.

For `Cn1ncc(C(=O)N2CCCC2)c1C(=O)Nc1ccc2nc(-c3cccnc3)nn2c1` [Example 12, 1-Methyl-N-(2-(pyridin-3-yl)-[1,2,4]triazolo[1,5-a]pyridin-6-yl)-4-(pyrrolidine-1-carbonyl)-1H-pyrazole-5-carboxamide], the IC50 came out at 17.9 nM.

For the molecule `Cn1ncc(C(=O)N2CCCC2)c1C(=O)Nc1ccc2nc(N3CCCC3)nn2c1` [Example 34, 2-Methyl-4-(pyrrolidine-1-carbonyl)-2H-pyrazole-3-carboxylic acid (2-pyrrolidin-1-yl-[1,2,4]triazolo[1,5-a]pyridin-6-yl)-amide], the IC50 amounted to 1.2 nM.

As for `Cn1ncc(C(=O)N2CCCC2)c1C(=O)Nc1ccc2nc(N3CCOCC3)nn2c1` [Example 13, 2-Methyl-4-(pyrrolidine-1-carbonyl)-2H-pyrazole-3-carboxylic acid (2-morpholin-4-yl-[1,2,4]triazolo[1,5-a]pyridin-6-yl)-amide], the half-inhibitory concentration (IC50) was 15.4 nM.

As for `CCN(C)C(=O)c1cnn(C)c1C(=O)Nc1ccc2nc(N(C)C)nn2c1` [Example 22, 2-Methyl-2H-pyrazole-3,4-dicarboxylic acid 3-[(2-dimethylamino-[1,2,4]triazolo[1,5-a]pyridin-6-yl)-amide] 4-(ethyl-methyl-amide)], the IC50 was determined as 33.5 nM.

Turning to `CCN(C)C(=O)c1cnn(C)c1C(=O)Nc1ccc2nc(N3CCCC3)nn2c1` [Example 36], the IC50 was determined as 1.9 nM.

In the case of `CCN(CC)C(=O)c1cnn(C)c1C(=O)Nc1ccc2nc(N3CCCC3)nn2c1` [Example 37], the IC50 came out at 3.5 nM.

On to `CCN(CC)C(=O)c1cnn(C)c1C(=O)Nc1ccc2nc(N(CC)CC)nn2c1` [Example 30, 2-Methyl-2H-pyrazole-3,4-dicarboxylic acid 4-diethylamide 3-[(2-diethylamino-1,2,4]triazolo[1,5-a]pyridin-6-yl)-amide], for which the half-inhibitory concentration (IC50) is 19.1 nM.

In the case of `CN(C)c1nc2ccc(NC(=O)c3c(C(=O)N4CC(F)C4)cnn3C)cn2n1` [Example 23, 4-(3-Fluoro-azetidine-1-carbonyl)-2-methyl-2H-pyrazole-3-carboxylic acid (2-dimethylamino-[1,2,4]triazolo[1,5-a]pyridin-6-yl)-amide], the half-inhibitory concentration (IC50) is 25 nM.

On to `CCN(CC)c1nc2ccc(NC(=O)c3c(C(=O)N(C)C4CC4)cnn3C)cn2n1` [Example 31], for which the IC50 came to 2.3 nM.

`COc1ncc(C2CC2)nc1C(=O)Nc1ccc2nc(-c3ccccc3)nn2c1` [Example 25, 6-cyclopropyl-3-methoxy-N-(2-phenyl-[1,2,4]triazolo[1,5-a]pyridin-6-yl)pyrazine-2-carboxamide]: the IC50 stood at 17 nM.

`CN(C)c1nc2ccc(NC(=O)c3c(C(=O)N4CCCC4)cnn3C)cn2n1` [Example 21, 2-Methyl-4-(pyrrolidine-1-carbonyl)-2H-pyrazole-3-carboxylic acid (2-dimethylamino-[1,2,4]triazolo[1,5-a]pyridin-6-yl)-amide]: the IC50 was 28.6 nM.

In the case of `CCN(C)C(=O)c1cnn(C)c1C(=O)Nc1ccc2nc(N3CCC(OC)C3)nn2c1` (stereo not shown) [Example 40, 2-Methyl-2H-pyrazole-3,4-dicarboxylic acid 4-(ethyl-methyl-amide) 3-{[2-(3-methoxy-pyrrolidin-1-yl)-[1,2,4]triazolo[1,5-a]pyridin-6-yl]-amide}], the half-maximal inhibitory concentration (IC50) came to 17 nM.

On to `Cn1ncc(C(=O)N2CCOCC2)c1C(=O)Nc1ccc2nc(N3CCOCC3)nn2c1` [Example 14, 2-Methyl-4-(morpholine-4-carbonyl)-2H-pyrazole-3-carboxylic acid (2-morpholin-4-yl-[1,2,4]triazolo[1,5-a]pyridin-6-yl)-amide], for which the IC50 amounted to 63.8 nM.

Turning to `CCN(C)C(=O)c1cnn(C)c1C(=O)Nc1ccc2nc(N(CC)CC)nn2c1` [Example 29, 2-Methyl-2H-pyrazole-3,4-dicarboxylic acid 3-[(2-diethylamino-[1,2,4]triazolo[1,5-a]pyridin-6-yl)-amide] 4-(ethyl-methyl-amide)], the IC50 is 9.9 nM.

Tested on in a further data set: not given
Test: not given
Settings: not given
The term melting point denotes the temperature, or range, at which the solid turns liquid. As for `CN(C(=O)c1cnn(C)c1C(=O)Nc1ccc2nc(N3CCOCC3)nn2c1)C1CC1` [Example 18, 2-Methyl-2H-pyrazole-3,4-dicarboxylic acid 4-(cyclopropyl-methyl-amide) 3-[(2-morpholin-4-yl-[1,2,4]triazolo[1,5-a]pyridin-6-yl)-amide]], the melting point is 172 °C.

The molecule `Cn1ncc(C(=O)N2CC(F)C2)c1C(=O)Nc1ccc2nc(-c3ccccc3)nn2c1` [Example 6, 4-(3-Fluoro-azetidine-1-carbonyl)-2-methyl-2H-pyrazole-3-carboxylic acid (2-phenyl-[1,2,4]triazolo[1,5-a]pyridin-6-yl)-amide] gave a melting point of 243 °C.

Take `Cn1ncc(C(=O)N2CCCC2)c1C(=O)Nc1ccc2nc(-c3ccccc3)nn2c1` [Example 2, 2-Methyl-4-(pyrrolidine-1-carbonyl)-2H-pyrazole-3-carboxylic acid (2-phenyl-[1,2,4]triazolo[1,5-a]pyridin-6-yl)-amide]: the melting point amounted to 210 °C.

The molecule `Cn1ncc(C(=O)N2CCCC2)c1C(=O)Nc1ccc2nc(-c3cccnc3)nn2c1` [Example 12, 1-Methyl-N-(2-(pyridin-3-yl)-[1,2,4]triazolo[1,5-a]pyridin-6-yl)-4-(pyrrolidine-1-carbonyl)-1H-pyrazole-5-carboxamide] returned a melting point of 251 °C.

`Cn1ncc(C(=O)N2CCCC2)c1C(=O)Nc1ccc2nc(N3CCOCC3)nn2c1` [Example 13, 2-Methyl-4-(pyrrolidine-1-carbonyl)-2H-pyrazole-3-carboxylic acid (2-morpholin-4-yl-[1,2,4]triazolo[1,5-a]pyridin-6-yl)-amide] showed a melting point of 185 °C.

These data come from patent US9227970B2, “Triazolopyridine compounds” (Hoffmann-La Roche Inc., priority 2011, dated 2016).
